Measurements: ChEMBL document CHEMBL1201861, “Genomics of Drug Sensitity in Cancer screening data, Wellcome Trust Sanger Institute”
pIC50: −log10 of the molar value.

Experiments:
Assay in all cases: cells
MC116 = format: functional, cell-based, Homo sapiens; details: Homo sapiens, MC116;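 also: growth inhibition of MC116 cells, read out with a cell viability assay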
Description: SANGER: Inhibition of human MC116 cell growth in a cell viability assay.

NH-12 = format: functional, cell-based, Homo sapiens; details: Homo sapiens, NH-12;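 also: growth inhibition of NH-12 cells, read out with a cell viability assay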
Description: SANGER: Inhibition of human NH-12 cell growth in a cell viability assay.

JAR = format: functional, cell-based, Homo sapiens; details: Homo sapiens, JAR;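 also: growth inhibition of human JAR cells determined with a cell viability assay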
Description: SANGER: Inhibition of human JAR cell growth in a cell viability assay.

MLMA = format: functional, cell-based, Homo sapiens; details: Homo sapiens, MLMA;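 also: growth inhibition of MLMA cells (human), determined through a cell viability readout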
Description: SANGER: Inhibition of human MLMA cell growth in a cell viability assay.

MFM-223 = format: functional, cell-based, Homo sapiens; details: Homo sapiens, MFM-223
Description: SANGER: Inhibition of human MFM-223 cell growth in a cell viability assay.

KM12 = format: functional, cell-based, Homo sapiens; details: Homo sapiens, KM12;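 also: KM12 cell growth inhibition, read out with a cell viability assay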
Description: SANGER: Inhibition of human KM12 cell growth in a cell viability assay.

COLO-668 = format: functional, cell-based, Homo sapiens; details: Homo sapiens, COLO-668
Description: SANGER: Inhibition of human COLO-668 cell growth in a cell viability assay.

EW-11 = format: functional, cell-based, Homo sapiens; details: Homo sapiens, EW-11;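 also: growth inhibition of human EW-11 cells, measured with a cell viability assay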
Description: SANGER: Inhibition of human EW-11 cell growth in a cell viability assay.

KURAMOCHI = format: functional, cell-based, Homo sapiens; details: Homo sapiens, KURAMOCHI;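 also: growth inhibition of KURAMOCHI cells, read out with a cell viability assay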
Description: SANGER: Inhibition of human KURAMOCHI cell growth in a cell viability assay.

KMOE-2 = format: functional, cell-based, Homo sapiens; details: Homo sapiens, KMOE-2;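 also: growth inhibition of human KMOE-2 cells, read out with a cell viability assay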
Description: SANGER: Inhibition of human KMOE-2 cell growth in a cell viability assay.

CTB-1 = format: functional, cell-based, Homo sapiens; details: Homo sapiens, CTB-1
Description: SANGER: Inhibition of human CTB-1 cell growth in a cell viability assay.

CW-2 = format: functional, cell-based, Homo sapiens; details: Homo sapiens, CW-2;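 also: growth inhibition of CW-2 cells, read out by a cell viability assay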
Description: SANGER: Inhibition of human CW-2 cell growth in a cell viability assay.

SW982 = format: functional, cell-based, Homo sapiens; details: Homo sapiens, SW982;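 also: growth inhibition of SW982 cells, read out with a cell viability assay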
Description: SANGER: Inhibition of human SW982 cell growth in a cell viability assay.

TGW = format: functional, cell-based, Homo sapiens; details: Homo sapiens, TGW;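 also: growth inhibition of human TGW cells, read out with a cell viability assay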
Description: SANGER: Inhibition of human TGW cell growth in a cell viability assay.

U-87 MG = format: functional, cell-based, Homo sapiens, U-87MG ATCC; details: Homo sapiens, U-87 MG;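 also: growth inhibition of the cells measured with a viability assay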
Description: SANGER: Inhibition of human U-87-MG cell growth in a cell viability assay.

HL-60 = format: functional, cell-based, Homo sapiens; details: Homo sapiens, HL-60;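 also: growth inhibition of human HL-60 cells, read out with a cell viability assay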
Description: SANGER: Inhibition of human HL-60 cell growth in a cell viability assay.

K562 = format: functional, cell-based, Homo sapiens; details: Homo sapiens, K562
Description: SANGER: Inhibition of human K-562 cell growth in a cell viability assay.

OS-RC-2 = format: functional, cell-based, Homo sapiens; details: Homo sapiens, OS-RC-2;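 also: growth inhibition of human OS-RC-2 cells, measured by a cell viability assay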
Description: SANGER: Inhibition of human OS-RC-2 cell growth in a cell viability assay.

ES3 = format: functional, cell-based, Homo sapiens; details: Homo sapiens, ES3;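 also: growth inhibition of ES3 cells, read out with a cell viability assay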
Description: SANGER: Inhibition of human ES3 cell growth in a cell viability assay.

QIMR-WIL = format: functional, cell-based, Homo sapiens; details: Homo sapiens, QIMR-WIL;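 also: growth inhibition of QIMR-WIL cells, read out with a cell viability assay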
Description: SANGER: Inhibition of human QIMR-WIL cell growth in a cell viability assay.

DMS-79 = format: functional, cell-based, Homo sapiens; details: Homo sapiens, DMS-79;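 also: growth inhibition measured with a cell viability assay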
Description: SANGER: Inhibition of human DMS-79 cell growth in a cell viability assay.

OCUB-M = format: functional, cell-based, Homo sapiens; details: Homo sapiens, OCUB-M;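 also: growth inhibition of the cancer cell line, read out through a cell viability assay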
Description: SANGER: Inhibition of human OCUB-M cell growth in a cell viability assay.

COR-L88 = format: functional, cell-based, Homo sapiens; details: Homo sapiens, COR-L88;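 also: growth inhibition of COR-L88 cells, read out with a cell viability assay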
Description: SANGER: Inhibition of human COR-L88 cell growth in a cell viability assay.

GAK = format: functional, cell-based, Homo sapiens; details: Homo sapiens, GAK;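 also: cell growth inhibition read out by a cell viability assay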
Description: SANGER: Inhibition of human GAK cell growth in a cell viability assay.

A388 = format: functional, cell-based, Homo sapiens; details: Homo sapiens, A388;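 also: growth inhibition of human A388 cells, read out with a cell viability assay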
Description: SANGER: Inhibition of human A388 cell growth in a cell viability assay.

LC-2-ad = format: functional, cell-based, Homo sapiens; details: Homo sapiens, LC-2-ad;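 also: growth inhibition of human LC-2-ad cells, read out with a cell viability assay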
Description: SANGER: Inhibition of human LC-2-ad cell growth in a cell viability assay.

EW-13 = format: functional, cell-based, Homo sapiens; details: Homo sapiens, EW-13;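 also: growth inhibition of EW-13 cells, read out with a cell viability assay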
Description: SANGER: Inhibition of human EW-13 cell growth in a cell viability assay.

LAMA-84 = format: functional, cell-based, Homo sapiens; details: Homo sapiens, LAMA-84;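 also: growth inhibition of LAMA-84 cells, read out with a cell viability assay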
Description: SANGER: Inhibition of human LAMA-84 cell growth in a cell viability assay.

LS-123 = format: functional, cell-based, Homo sapiens; details: Homo sapiens, LS-123
Description: SANGER: Inhibition of human LS-123 cell growth in a cell viability assay.

TGBC1TKB = format: functional, cell-based, Homo sapiens; details: Homo sapiens, TGBC1TKB;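 also: growth inhibition of TGBC1TKB cells, read out by a cell viability assay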
Description: SANGER: Inhibition of human TGBC1TKB cell growth in a cell viability assay.

SBC-1 = format: functional, cell-based, Homo sapiens; details: Homo sapiens, SBC-1;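 also: cell viability assay measuring growth inhibition of the SBC-1 cell line, IC50 being the concentration that halves growth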
Description: SANGER: Inhibition of human SBC-1 cell growth in a cell viability assay.

LS-513 = format: functional, cell-based, Homo sapiens; details: Homo sapiens, LS-513
Description: SANGER: Inhibition of human LS-513 cell growth in a cell viability assay.

SK-MEL-2 = format: functional, cell-based, Homo sapiens; details: Homo sapiens, SK-MEL-2;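 also: growth inhibition of human SK-MEL-2 cells measured with a cell viability assay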
Description: SANGER: Inhibition of human SK-MEL-2 cell growth in a cell viability assay.

8-MG-BA = format: functional, cell-based, Homo sapiens; details: Homo sapiens, 8-MG-BA;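 also: growth inhibition of 8-MG-BA cells, read out with a cell viability assay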
Description: SANGER: Inhibition of human 8-MG-BA cell growth in a cell viability assay.

CGTH-W-1 = format: functional, cell-based, Homo sapiens; details: Homo sapiens, CGTH-W-1;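 also: growth inhibition of human CGTH-W-1 cells measured by cell viability assay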
Description: SANGER: Inhibition of human CGTH-W-1 cell growth in a cell viability assay.

P30-OHK = format: functional, cell-based, Homo sapiens; details: Homo sapiens, P30-OHK;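 also: growth inhibition of the P30-OHK cell line, read out with a cell viability assay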
Description: SANGER: Inhibition of human P30-OHK cell growth in a cell viability assay.

KU812 cell line = format: functional, cell-based, Homo sapiens; details: Homo sapiens, KU812;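 also: growth inhibition of KU812 cells, read out with a cell viability assay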
Description: SANGER: Inhibition of human KU812 cell growth in a cell viability assay.

MS-1 = format: functional, cell-based, Homo sapiens; details: Homo sapiens, MS-1;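 also: growth inhibition of MS-1 cells, read out by cell viability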
Description: SANGER: Inhibition of human MS-1 cell growth in a cell viability assay.

SNU-C2B = format: functional, cell-based, Homo sapiens; details: Homo sapiens, SNU-C2B;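 also: cell viability readout used to measure compound-driven suppression of SNU-C2B cell proliferation, IC50 marking half-maximal growth inhibition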
Description: SANGER: Inhibition of human SNU-C2B cell growth in a cell viability assay.

DSH1 = format: functional, cell-based, Homo sapiens; details: Homo sapiens, DSH1;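 also: growth inhibition of human DSH1 cells, measured with a cell viability readout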
Description: SANGER: Inhibition of human DSH1 cell growth in a cell viability assay.

SK-UT-1 = format: functional, cell-based, Homo sapiens; details: Homo sapiens, SK-UT-1;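 also: growth inhibition of SK-UT-1 cells, measured by a cell viability assay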
Description: SANGER: Inhibition of human SK-UT-1 cell growth in a cell viability assay.

HD-MY-Z = format: functional, cell-based, Homo sapiens; details: Homo sapiens, HD-MY-Z;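 also: growth inhibition of HD-MY-Z cells, read out with a cell viability assay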
Description: SANGER: Inhibition of human HD-MY-Z cell growth in a cell viability assay.

HAL-01 = format: functional, cell-based, Homo sapiens; details: Homo sapiens, HAL-01;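 also: growth inhibition of human HAL-01 cells, read out with a cell viability assay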
Description: SANGER: Inhibition of human HAL-01 cell growth in a cell viability assay.

HCC 2998 = format: functional, cell-based, Homo sapiens; details: Homo sapiens, HCC 2998;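 also: growth inhibition of human HCC2998 cells, measured with a cell viability read-out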
Description: SANGER: Inhibition of human HCC2998 cell growth in a cell viability assay.

HH = format: functional, cell-based, Homo sapiens; details: Homo sapiens, HH
Description: SANGER: Inhibition of human HH cell growth in a cell viability assay.

NCI-H1092 = format: functional, cell-based, Homo sapiens; details: Homo sapiens, NCI-H1092;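 also: cell growth inhibition measured with a cell viability assay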
Description: SANGER: Inhibition of human NCI-H1092 cell growth in a cell viability assay.

NCI-H69 = format: functional, cell-based, Homo sapiens; details: Homo sapiens, NCI-H69;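 also: growth inhibition of the cell line, read out with a cell viability assay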
Description: SANGER: Inhibition of human NCI-H69 cell growth in a cell viability assay.

ONS-76 = format: functional, cell-based, Homo sapiens; details: Homo sapiens, ONS-76;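 also: growth inhibition of human ONS-76 cells, read out with a cell viability assay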
Description: SANGER: Inhibition of human ONS-76 cell growth in a cell viability assay.

In the case of CCC/C=C/C=C/C(=O)O[C@H]1/C(=C/C(=O)OC)C[C@H]2C[C@H]([C@@H](C)O)OC(=O)C[C@H](O)C[C@@H]3C[C@H](OC(C)=O)C(C)(C)[C@](O)(C[C@@H]4C/C(=C/C(=O)OC)C[C@H](/C=C/C(C)(C)[C@]1(O)O2)O4)O3 [BRYOSTATIN 1], the pIC50 (MC116) was less than 8.10, the pIC50 (NH-12) was less than 8.10 and the pIC50 (JAR) was less than 8.10. The pIC50 (MLMA) was less than 8.10, the pIC50 (MFM-223) was less than 8.10 and the pIC50 (KM12) was less than 8.10. The pIC50 (COLO-668) was less than 8.10, the pIC50 (EW-11) was less than 8.10 and the pIC50 (KURAMOCHI) was less than 8.10. For the same compound, the pIC50 (KMOE-2) was less than 8.10, the pIC50 (CTB-1) was less than 8.10 and the pIC50 (CW-2) was less than 8.10. It also gave a pIC50 (SW982) of less than 8.10, a pIC50 (TGW) of less than 8.10 and a pIC50 (U-87 MG) of less than 8.10. The pIC50 (HL-60) was less than 8.10, the pIC50 (K562) was less than 8.10 and the pIC50 (OS-RC-2) was less than 8.10. The pIC50 (ES3) was less than 8.10, the pIC50 (QIMR-WIL) was less than 8.10 and the pIC50 (DMS-79) was less than 8.10. It also gave a pIC50 (OCUB-M) of less than 8.10, a pIC50 (COR-L88) of less than 8.10 and a pIC50 (GAK) of less than 8.10. For the same compound, the pIC50 (A388) was less than 8.10, the pIC50 (LC-2-ad) was less than 8.10 and the pIC50 (EW-13) was less than 8.10. It also gave a pIC50 (LAMA-84) of less than 8.10, a pIC50 (LS-123) of less than 8.10 and a pIC50 (TGBC1TKB) of less than 8.10. The pIC50 (SBC-1) was less than 8.10, the pIC50 (LS-513) was less than 8.10 and the pIC50 (SK-MEL-2) was less than 8.10. For the same compound, the pIC50 (8-MG-BA) was less than 8.10, the pIC50 (CGTH-W-1) was less than 8.10 and the pIC50 (P30-OHK) was less than 8.10. The pIC50 (KU812 cell line) was less than 8.10, the pIC50 (MS-1) was less than 8.10 and the pIC50 (SNU-C2B) was less than 8.10. The pIC50 (DSH1) was less than 8.10, the pIC50 (SK-UT-1) was less than 8.10 and the pIC50 (HD-MY-Z) was less than 8.10. For the same compound, the pIC50 (HAL-01) was less than 8.10, the pIC50 (HCC 2998) was less than 8.10 and the pIC50 (HH) was less than 8.10. For the same compound, the pIC50 (NCI-H1092) was less than 8.10, the pIC50 (NCI-H69) was less than 8.10 and the pIC50 (ONS-76) was less than 8.10.

With Oc1ccc2ccccc2c1SSc1c(O)ccc2ccccc12 the pIC50 (MC116) was less than 4.49, the pIC50 (NH-12) was 5.29 and the pIC50 (JAR) was less than 4.49. For the same compound, the pIC50 (MLMA) was 4.53, the pIC50 (MFM-223) was less than 4.49 and the pIC50 (KM12) was less than 4.49. It also gave a pIC50 (COLO-668) of less than 4.49, a pIC50 (EW-11) of less than 4.49 and a pIC50 (KURAMOCHI) of less than 4.49. For the same compound, the pIC50 (KMOE-2) was less than 4.49, the pIC50 (CTB-1) was 4.90 and the pIC50 (CW-2) was less than 4.49. The pIC50 (SW982) was less than 4.49, the pIC50 (TGW) was less than 4.49 and the pIC50 (U-87 MG) was less than 4.49. The pIC50 (HL-60) was 5.05, the pIC50 (K562) was less than 4.49 and the pIC50 (OS-RC-2) was less than 4.49. It also gave a pIC50 (ES3) of 4.94, a pIC50 (QIMR-WIL) of 5.54 and a pIC50 (DMS-79) of less than 4.49. It also gave a pIC50 (OCUB-M) of less than 4.49, a pIC50 (COR-L88) of less than 4.49 and a pIC50 (GAK) of less than 4.49. It also gave a pIC50 (A388) of less than 4.49, a pIC50 (LC-2-ad) of 4.62 and a pIC50 (EW-13) of 5.38. For the same compound, the pIC50 (LAMA-84) was less than 4.49, the pIC50 (LS-123) was 5.06 and the pIC50 (TGBC1TKB) was less than 4.49. The pIC50 (SBC-1) was less than 4.49, the pIC50 (LS-513) was less than 4.49 and the pIC50 (SK-MEL-2) was less than 4.49. The pIC50 (8-MG-BA) was less than 4.49, the pIC50 (CGTH-W-1) was less than 4.49 and the pIC50 (P30-OHK) was 5.01. The pIC50 (KU812 cell line) was 5.56, the pIC50 (MS-1) was less than 4.49 and the pIC50 (SNU-C2B) was less than 4.49. The pIC50 (DSH1) was less than 4.49, the pIC50 (SK-UT-1) was less than 4.49 and the pIC50 (HD-MY-Z) was less than 4.49. It also gave a pIC50 (HAL-01) of 4.59, a pIC50 (HCC 2998) of less than 4.49 and a pIC50 (HH) of 4.97. The pIC50 (NCI-H1092) was less than 4.49, the pIC50 (NCI-H69) was less than 4.49 and the pIC50 (ONS-76) was less than 4.49.
